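Five concentrations, 48 hours, 96-well plates. Definition used: TGI = concentration required for complete inhibition of growth.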

This note sets out measurements from PubChem BioAssay (NCI).

Test in all cases: inhibition of tumour cell growth, NCI panel, 48 h
Assay [1] deals with HL-60(TB) leukemia.
The subject of assay [2] is MDA-N.
The subject of assay [3] is A549 NSCLC.
In assay [4] the test system is LOX IMVI melanoma.
Assay [5] relates to U251 CNS.
The subject of assay [6] is UACC-62 melanoma.
The test system of assay [7] is SK-OV-3 ovarian.
The subject of assay [8] is OVCAR-3 ovarian.
Assay [9] relates to SR leukemia.
The test system of assay [10] is SK-MEL-28 melanoma.
In assay [11] the test system is 786-0 renal.
Assay [12] has as its system SN12C renal.

In the case of `O=C(c1ccccc1)c1sc2c(=O)c(C(=O)c3ccccc3)c(C(=O)c3ccccc3)sc2c(=O)c1C(=O)c1ccccc1`, the TGI in assay [1] is 48.4 µM; in assay [2] it was > 100 µM; in [3], > 100 µM; in assay [4], > 100 µM; in [5] it was > 100 µM; in [6] it was > 100 µM. Further, the TGI in [7], in assay [8], in [9], in [10], in assay [11] and in assay [12] was > 100 µM in each case.
In the case of `COc1cc2cc(C(=O)N3CC(CCl)c4ccccc43)[nH]c2c(OC)c1OC` (stereo not drawn), the TGI in [1], in assay [2], in assay [3], in assay [4], in [5] and in assay [6] was > 100 µM each time. Besides, the TGI in [7] is > 100 µM; in [8] it was > 100 µM; in [9] it was > 100 µM; in assay [10], > 100 µM; in [11], > 100 µM; in assay [12], 55.2 µM.
In the case of `O=C(NC(Nc1ccc(F)c(Cl)c1)(C(F)(F)F)C(F)(F)F)OCc1ccccc1`, the TGI in assay [1] was 40.3 µM; in [2], 56.2 µM; in assay [3], > 100 µM; in assay [4], > 100 µM; in assay [5], > 100 µM; in assay [6] it was > 100 µM. The TGI in assay [7] was 74.1 µM; in assay [8] it was 34.8 µM; in assay [9], 32.7 µM; in [10] it was > 100 µM; in assay [11], 39.5 µM; in [12], > 100 µM.
In the case of `C=CC[C@@]1(C)CCCCCCCCC[C@@](C)(CC=C)C1=O`, the TGI in assay [1] is 46.1 µM; in assay [2], > 100 µM; in assay [3], > 100 µM; in assay [4], 33.6 µM; in [5] it was 33 µM; in assay [6], 67.5 µM. Further, the TGI in [7] was > 100 µM; in [8], 38.1 µM; in assay [9], 63.7 µM; in [10] it was > 100 µM; in assay [11], > 100 µM; in assay [12], 76.8 µM.
With `CN(CCCNC(=O)c1nn(-c2ccc(Cl)cc2Cl)c2c1ccc1ccccc12)CCCNC(=O)c1nn(-c2ccc(Cl)cc2Cl)c2c1ccc1ccccc12`, the TGI in [1] is 2.1 µM; in assay [2], 3.18 µM; in assay [3] it was 3.11 µM; in [4], 3.2 µM; in [5], 3.07 µM; in [6] it was 3.03 µM. The TGI in [7] was 3.49 µM; in [8], 3.14 µM; in assay [9], 1.58 µM; in assay [11], 2.95 µM; in [12], 3.14 µM.
As to `N#CCCN(CCN(C(=O)Nc1ccccc1)c1ccccc1)C(=O)Nc1ccccc1`, the TGI in assay [1] is 34.7 µM; in assay [2], > 100 µM; in assay [3] it was > 100 µM; in assay [4], > 100 µM; in [5], > 100 µM; in assay [6] it was > 100 µM. For the same molecule, the TGI in assay [7], in [8], in assay [9], in assay [10], in [11] and in assay [12] was > 100 µM throughout.
For `N=C(N)SCc1cccc2c(=O)cc(-c3ccccc3)oc12`, the TGI was 13.1 µM in assay [1]; 21.3 µM in [2]; 29 µM in [3]; 28.3 µM in [4]; 27.3 µM in assay [5]; 32.4 µM in assay [6]. The TGI is 30.5 µM in assay [7]; 23.1 µM in assay [8]; > 100 µM in [9]; 6.37 µM in assay [10]; 23.3 µM in assay [11]; 25.9 µM in assay [12].
`C=C(Cl)C(=C)CCC(Cl)C(C)C` (stereo not drawn): the TGI in assay [1], in assay [2], in assay [3], in assay [4], in assay [5] and in assay [6] was > 100 µM throughout. The TGI in [7], in assay [8], in [9], in assay [10], in [11] and in [12] was > 100 µM throughout.
Take `O=C(O)c1ccccc1/C=N/NC1=NCCCCN1`: the TGI in assay [1], in assay [2], in assay [3], in assay [4], in assay [5] and in [6] was > 100 µM throughout. In addition, the TGI in assay [7], in [8], in assay [9], in assay [10] and in assay [11] was > 100 µM in each case.
On to `COc1ccc(C2SC(C)C(=O)N2c2nc(-c3nc(-c4ccc(Cl)cc4)cs3)cs2)cc1` (stereo not drawn), for which the TGI in [1], in [2], in [3], in assay [4], in assay [5] and in [6] was > 100 µM throughout. The TGI in [7], in assay [8], in assay [9], in assay [11] and in [12] was > 100 µM throughout.
For `COc1ccc(/C=C2\N=C(NN)N=C2Cl)cc1`, the TGI in assay [1], in assay [2], in [3], in assay [4], in assay [5] and in assay [7] was > 100 µM each time. For the same molecule, the TGI in assay [8], in assay [9], in assay [10], in [11] and in assay [12] was > 100 µM each time.
